Data taken from article PMC9385671 (Nature Communications, 2022).
Where “and” joins values, the source holds several entries; their conditions need not be identical. Equal entries are not always repeated. Where two headings read alike, the source gives them in different places.

How the values were obtained:
[1] = Side-chain acidity: pKa by 1H NMR titration of free amino acids; format: physicochemical; settings: for pKa: aqueous KH2PO4 solution titrated with sodium hydroxide; for pKa of the phenolic side-chain: experimental error ±0.15
Experimental: 10–20 mg of an amino acid, 50 mg of KH2PO4 was dissolved in 15 ml of water and titrated by sodium hydroxide solution to distinct pH values. 500 μl were taken to NMR tubes, 50 μl deuterium oxidewas added and ^1H NMR spectra were measured using W5 pulse tray water suppression at 500 MHz frequency. The chemical shifts were plotted against pH and analyzed using Henderson-Hasselbalch equation to deliver the pKa values. Experimental error ±0.15.

[2] = biological target: T1, MjTyrRS variants (Methanocaldococcus jannaschii, UniProt Q57834, D158A/F108N/H70G/L162C/L65E/Y32V); experiment: Intact cell fluorescence assay of HYs incorporation into SUMO-sfGFP; format: cell-based; settings: Synthetase C64RS
T1 construct: expressed in transfected cells
T1 sequence (Q57834 whole entry Y32V/L65E/H70G/F108N/D158A/L162C): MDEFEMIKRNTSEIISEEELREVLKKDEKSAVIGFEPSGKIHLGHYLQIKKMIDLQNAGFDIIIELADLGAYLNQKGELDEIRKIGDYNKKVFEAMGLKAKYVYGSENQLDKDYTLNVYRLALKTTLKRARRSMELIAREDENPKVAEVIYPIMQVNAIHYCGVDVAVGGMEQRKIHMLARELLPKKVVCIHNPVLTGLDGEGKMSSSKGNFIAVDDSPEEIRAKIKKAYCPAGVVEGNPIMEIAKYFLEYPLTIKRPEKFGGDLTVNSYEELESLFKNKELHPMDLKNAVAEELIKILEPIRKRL
Experimental: (§1) The intact cell fluorescence assay was performed to approximately compare the Br2Y and Cl2Y incorporation efficiency of screened MjTyrRSs as well as to estimate their promiscuity against other Tyr analogues. Since the gene expression of SUMO-sfGFP was driven by T5 promoter on the one round positive selection plasmid, SUMO-sfGFP can be directly expressed in DH10b strain. […] Next day, an overnight culture was inoculated in a well at a ratio of 1:100 containing 300 μL TB medium supplemented with 50 μg/mL Kan,100 μg/mL Amp, 0.5 mM IPTG as well as 1 mM HYs while the corresponding control lacked the HYs. Cells were grown in 96 well plates (Ibidi) with orbital shaking (2 mm amplitude) for 24 h at 37 °C covered with a gas-permeable foil (Sigma Aldrich, Taufkirchen, Germany). […] After 24 h incubation, the optimal density and fluorescence was measured via top reading after the gas-permeable foil was removed. Each measurement was done in triplicate.

[3] = biological target: T2, MjTyrRS variants (Methanocaldococcus jannaschii, UniProt Q57834, D158A/F108Q/H70G/L162N/L65E/Q109C/Y32G); experiment: as above; format: cell-based; settings: for Fluorescence Instensity: Synthetase B48RS; for Incorporation efficiency (sfGFP fluorescence) versus control without HYs additions: mutant B48RS, 1 mM HY, E. coli DH10b
T2 construct: expressed in transfected cells
T2 sequence (Q57834 whole entry Y32G/L65E/H70G/F108Q/Q109C/D158A/L162N): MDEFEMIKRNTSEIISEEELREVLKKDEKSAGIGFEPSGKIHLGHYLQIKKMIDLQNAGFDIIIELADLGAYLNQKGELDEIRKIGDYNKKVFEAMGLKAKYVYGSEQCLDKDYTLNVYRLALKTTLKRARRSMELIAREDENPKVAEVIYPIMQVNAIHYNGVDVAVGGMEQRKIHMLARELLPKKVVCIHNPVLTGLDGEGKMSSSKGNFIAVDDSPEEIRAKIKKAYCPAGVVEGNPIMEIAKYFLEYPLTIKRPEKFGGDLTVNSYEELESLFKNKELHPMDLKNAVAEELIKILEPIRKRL
Experimental: as §1

[4] = tested on: MjTyrRS variants; experiment: as above; format: cell-based, Methanocaldococcus jannaschii
Experimental: as §1

[5] = biological target: T3, FtsZ-YFP-mts (Escherichia coli, UniProt P0A9A6); format: biochemical; design: made in house; host or cells: E. coli BL21(DE3) for the wild type; settings: 5 μM protein, 1 mM GTP
T3 sequence (P0A9A6 1-366): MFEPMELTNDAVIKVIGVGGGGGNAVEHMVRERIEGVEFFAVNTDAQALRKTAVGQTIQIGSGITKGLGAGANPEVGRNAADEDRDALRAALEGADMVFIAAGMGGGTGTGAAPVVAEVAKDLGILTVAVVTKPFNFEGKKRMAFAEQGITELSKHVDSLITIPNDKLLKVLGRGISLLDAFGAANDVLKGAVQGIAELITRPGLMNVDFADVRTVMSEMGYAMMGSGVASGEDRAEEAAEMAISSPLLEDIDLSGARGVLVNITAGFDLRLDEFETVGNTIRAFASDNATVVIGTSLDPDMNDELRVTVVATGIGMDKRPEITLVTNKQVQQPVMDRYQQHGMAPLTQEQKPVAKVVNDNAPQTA
Experimental: Reactions were performed every 20 s for a total time of 120 s. After 30 min of incubation with BIOMOL® GREEN at room temperature, the absorbance of the samples at 620 nm was monitored by TECAN plate reader. The phosphate release concentrations were calculated based on a phosphate standard curve.

[6] = biological target: T3, FtsZ-YFP-mts; design: made in house; host or cells: E. coli BL21(DE3) for the wild type; settings: intensity line profile
Experimental: 1,2-dioleoyl-sn-glycero-3-phosphocholine (DOPC):1,2-dioleoyl-sn-glycero-3-phospho-(1’-rac-glycerol) (DOPG), 70:30 mol % mixture, was dissolved in chloroform in a quartz container, then dehumidified under a gas nitrogen stream. Chloroform traces were further removed through desiccation (1 h). Afterwards, the lipid film was hydrated to a final concentration of 4 mg/ml in supported lipid bilayers (SLB) buffer (50 mM Tris-HCl at pH 7.5, 150 mM KCl), and incubated at 37 °C for 30 min. The lipid film was then completely resuspended by vortexing rigorously to obtain multilamellar vesicles of different sizes. This mixture was then placed in a bath sonicator where shear forces help to reduce the size of the vesicles, giving rise to small unilamellar vesicles (SUVs). The SUV dispersion were stored at −20 °C as 20 µl aliquots.
Glass coverslips (1.5#, 24 x 24 mm) were cleaned by piranha solution overnight, followed by extensive washing with milliQ H2O. Then glass coverslips were blown dry with compressed air. The reaction chamber was prepared by attaching a plastic ring on a cleaned glass coverslip using ultraviolet glue (Thorlabs No. 68). For supported lipid bilayer formation, the SUV dispersion was diluted in SLB buffer to 0.5 mg/ml, of which 75 µl was added to the reaction chamber. Adding CaCl2 to a final concentration of 3 mM induced fusion of the vesicles and the formation of a lipid bilayer on coversilde. After 20 min of incubation at 37 °C, the sample was rinsed with 2 ml pre-warmed SLB buffer.
Polymerization was induced by adding 4 mM GTP.
The UltimateFocus feature of DeltaVision Elite maintains the focus plane constant in time. […] Fluorescence imaging was performed using a standard FITC filter set. Images were acquired with a PCO sCMOS 5.5 camera (PCO, Germany) controlled by the softWoRx Software (GE Healthcare Life Sciences, Germany). For time-lapse experiments, images were acquired every 3 s with a 0.05 s exposure time and light illumination shuttered between acquisitions.

[7] = experimental error ±0.15, read-out: Ammonium pKa
[8] = experimental error ±0.15, read-out: pKa of the phenolic side-chain

N[C@@H](Cc1cc(Br)c(O)c(Br)c1)C(=O)O [Br2Y, 3,5-dibromo-L-tyrosine]
pKa [1, 7]: 9.47 | pKa [1, 8]: 6.5 | pKa of the phenolic side-chain [1]: 6.42 and 6.4 | Fluorescence Instensity [2]: 0.543 a.u. and 0.6311 a.u. and 0.4752 a.u. | Fluorescence Instensity [3]: 0.6442 a.u. and 0.7285 a.u. and 0.5778 a.u. | Incorporation efficiency (sfGFP fluorescence) versus control without HYs additions [3]: more than 100 fold | Fluorescence Instensity ([4]; Synthetase B4RS): 0.3153 a.u. and 0.3784 a.u. and 0.2551 a.u. | Fluorescence Instensity ([4]; Synthetase B12RS): 0.5915 a.u. and 0.6712 a.u. and 0.4959 a.u. | Fluorescence Instensity ([4]; Synthetase B37RS): 0.6 a.u. and 0.6999 a.u. and 0.4943 a.u. | Fluorescence Instensity ([4]; Synthetase B39RS): 0.615 a.u. and 0.7381 a.u. and 0.4945 a.u. | Fluorescence Instensity ([4]; Synthetase C5RS): 0.6366 a.u. and 0.6936 a.u. and 0.5742 a.u. | Fluorescence Instensity ([4]; Synthetase C45RS): 0.5945 a.u. and 0.6865 a.u. and 0.5035 a.u. | Fluorescence Instensity ([4]; Synthetase C61RS): 0.4306 a.u. and 0.4884 a.u. and 0.3801 a.u. | GTPase activity, Average ([5]; average of two repeats): 3.469 pi/min | GTPase activity, single repeats ([5]; repeat 1 and repeat 2): 3.2195 pi/min and 3.7182 pi/min

N[C@@H](Cc1ccc(O)c(Br)c1)C(=O)O [BrY, 3-bromo-L-tyrosine]
pKa [1, 7]: 9.52 | pKa [1, 8]: 8.3 | pKa of the phenolic side-chain [1]: 8.29 | Fluorescence Instensity [2]: 0.3329 a.u. and 0.3931 a.u. and 0.2701 a.u. | Fluorescence Instensity [3]: 0.5063 a.u. and 0.6051 a.u. and 0.4087 a.u. | Incorporation efficiency (sfGFP fluorescence) versus control without HYs additions [3]: more than 100 fold | Fluorescence Instensity ([4]; Synthetase B4RS): 0.06278 a.u. and 0.07689 a.u. and 0.04597 a.u. | Fluorescence Instensity ([4]; Synthetase B12RS): 0.408 a.u. and 0.4614 a.u. and 0.3514 a.u. | Fluorescence Instensity ([4]; Synthetase B37RS): 0.2591 a.u. and 0.2929 a.u. and 0.2246 a.u. | Fluorescence Instensity ([4]; Synthetase C5RS): 0.7502 a.u. and 0.845 a.u. and 0.6301 a.u. | Fluorescence Instensity ([4]; Synthetase C45RS): 0.7918 a.u. and 0.9328 a.u. and 0.6597 a.u. | Fluorescence Instensity ([4]; Synthetase C61RS): 0.2377 a.u. and 0.2625 a.u. and 0.2104 a.u.

N[C@@H](Cc1cc(Cl)c(O)c(Cl)c1)C(=O)O [Cl2Y, 3,5-dichloro-L-tyrosine]
pKa [1, 7]: 9.4 | pKa [1, 8]: 6.5 | pKa of the phenolic side-chain [1]: 6.52 | Fluorescence Instensity [2]: 0.3285 a.u. and 0.3594 a.u. and 0.2924 a.u. | Fluorescence Instensity [3]: 0.5689 a.u. and 0.6362 a.u. and 0.4688 a.u. | Incorporation efficiency (sfGFP fluorescence) versus control without HYs additions [3]: more than 100 fold | Fluorescence Instensity ([4]; Synthetase B4RS): 0.07529 a.u. and 0.09709 a.u. and 0.05112 a.u. | Fluorescence Instensity ([4]; Synthetase B12RS): 0.3851 a.u. and 0.4746 a.u. and 0.2926 a.u. | Fluorescence Instensity ([4]; Synthetase B37RS): 0.3145 a.u. and 0.3721 a.u. and 0.2575 a.u. | Fluorescence Instensity ([4]; Synthetase B39RS): 0.2554 a.u. and 0.3069 a.u. and 0.2029 a.u. | Fluorescence Instensity ([4]; Synthetase C5RS): 0.7019 a.u. and 0.7995 a.u. and 0.5915 a.u. | Fluorescence Instensity ([4]; Synthetase C45RS): 0.8209 a.u. and 0.9248 a.u. and 0.7159 a.u. | Fluorescence Instensity ([4]; Synthetase C61RS): 0.5873 a.u. and 0.6501 a.u. and 0.5303 a.u.

N[C@@H](Cc1ccc(O)c(Cl)c1)C(=O)O [ClY, 3-chloro-L-tyrosine]
pKa [1, 7]: 9.5 | pKa [1, 8]: 8.3 | pKa of the phenolic side-chain [1]: 8.31 | Fluorescence Instensity [2]: 0.3514 a.u. and 0.3883 a.u. and 0.3147 a.u. | Fluorescence Instensity [3]: 0.5472 a.u. and 0.654 a.u. and 0.4364 a.u. | Fluorescence Instensity ([4]; Synthetase B12RS): 0.3856 a.u. and 0.4561 a.u. and 0.2986 a.u. | Fluorescence Instensity ([4]; Synthetase B37RS): 0.2734 a.u. and 0.2944 a.u. and 0.2525 a.u. | Fluorescence Instensity ([4]; Synthetase C5RS): 0.8727 a.u. and 1 a.u. and 0.7434 a.u. | Fluorescence Instensity ([4]; Synthetase C45RS): 0.8577 a.u. and 0.9724 a.u. and 0.7484 a.u. | Fluorescence Instensity ([4]; Synthetase C61RS): 0.5458 a.u. and 0.6071 a.u. and 0.5015 a.u.

N[C@@H](Cc1ccc(O)cc1)C(=O)O [Y, tyrosine]
Fluorescence Instensity [2]: 0.01243 a.u. and 0.01248 a.u. and 0.01236 a.u. | Fluorescence Instensity [3]: 0.00506 a.u. and 0.00513 a.u. and 0.00494 a.u. | Fluorescence Instensity ([4]; Synthetase B4RS): 0.06037 a.u. and 0.07682 a.u. and 0.04915 a.u. | Fluorescence Instensity ([4]; Synthetase B37RS): 0.1466 a.u. and 0.1756 a.u. and 0.1118 a.u. | Fluorescence Instensity ([4]; Synthetase B39RS): 0.1833 a.u. and 0.2205 a.u. and 0.1319 a.u. | Fluorescence Instensity ([4]; Synthetase C5RS): 0.01571 a.u. and 0.01574 a.u. and 0.0156 a.u. | Gray value ([6]; Distance(um) 5.15845): 0.2436 | Gray value ([6]; Distance(um) 5.17427): 0.2678 | Gray value ([6]; Distance(um) 5.1901): 0.2809 | Gray value ([6]; Distance(um) 5.20592): 0.2851 | Gray value ([6]; Distance(um) 5.22175): 0.3113 | Gray value ([6]; Distance(um) 5.23757): 0.3327 | Gray value ([6]; Distance(um) 5.25339): 0.3531 | Gray value ([6]; Distance(um) 5.26922): 0.3835 | Gray value ([6]; Distance(um) 5.28504): 0.428 | Gray value ([6]; Distance(um) 5.30086): 0.443 | Gray value ([6]; Distance(um) 5.31669): 0.4411 | Gray value ([6]; Distance(um) 5.33251): 0.4633 | Gray value ([6]; Distance(um) 5.34833): 0.4809 | Gray value ([6]; Distance(um) 5.36416): 0.4782 | Gray value ([6]; Distance(um) 5.37998): 0.498 | Gray value ([6]; Distance(um) 5.3958): 0.5435 | Gray value ([6]; Distance(um) 5.41163): 0.5554 | Gray value ([6]; Distance(um) 5.42745): 0.5565 | Gray value ([6]; Distance(um) 5.44327): 0.5888 | Gray value ([6]; Distance(um) 5.4591): 0.6168 | Gray value ([6]; Distance(um) 5.47492): 0.6475 | Gray value ([6]; Distance(um) 5.49074): 0.6743 | Gray value ([6]; Distance(um) 5.50657): 0.698 | Gray value ([6]; Distance(um) 5.52239): 0.7626 | Gray value ([6]; Distance(um) 5.53821): 0.7361 | Gray value ([6]; Distance(um) 5.55404): 0.7938 | Gray value ([6]; Distance(um) 5.56986): 0.8828 | Gray value ([6]; Distance(um) 5.58569): 0.899 | Gray value ([6]; Distance(um) 5.60151): 0.8493 | Gray value ([6]; Distance(um) 5.61733): 0.8767 | Gray value ([6]; Distance(um) 5.63316): 0.9446 | Gray value ([6]; Distance(um) 5.64898): 1 | Gray value ([6]; Distance(um) 5.6648): 0.9652 | Gray value ([6]; Distance(um) 5.68063): 0.9584 | Gray value ([6]; Distance(um) 5.69645): 0.9755 | Gray value ([6]; Distance(um) 5.71227): 0.9816 | Gray value ([6]; Distance(um) 5.7281): 0.9099 | Gray value ([6]; Distance(um) 5.74392): 0.8492 | Gray value ([6]; Distance(um) 5.75974): 0.8638 | Gray value ([6]; Distance(um) 5.77557): 0.7917 | Gray value ([6]; Distance(um) 5.79139): 0.7498 | Gray value ([6]; Distance(um) 5.80721): 0.6513
